Assays:
Type in all cases: in vivo, human
[1] = system: patients; assay: Adverse events recorded at each visit in patients on CBD only
Protocol: (§1) Patients were assessed monthly by the clinical team (doctor and nurse) and a visit schedule protocol was followed for each patient. A full medical history was conducted at the initial visit, including a detailed history of the clinical indication (including duration symptoms), comorbidities mental and cardiac health conditions, previous procedures, medications and therapies tried. Patients were reviewed as per the Schedule of Assessments (FIG. 2). Cannabinoid dose and Adverse events were also recorded at each visit after treatment began and categorised as mild (no product change indicated), moderate (product change indicated), severe (product cessation indicated) or serious (life-threatening/medical emergency).
Adverse events (AE) were recorded at each of the visits. AEs were categorised as either: Mild (required no change in dose or product), Moderate (required change in dose or product), Severe (required cessation of product) or Serious (medical emergency).
All AEs reported during treatment were recorded. Assessments included monitoring of any or all of the following parameters: the participant's clinical symptoms, laboratory, pathological, radiological or surgical history, physical examination findings, and/or or findings from blood/urine tests. The nature, time of onset, duration and severity will be documented, together with the Investigator's opinion of the relationship to the Medicinal cannabis product.
Review of the dose and side effects was conducted by the doctor at 2 weeks; the doctors then advise whether to increase/or decreases doses. Reviews and clinical visits beyond the 2 weeks occurred monthly or more often as required by the patient due to efficacy and side effects.

[2] = system: symptoms of stress; assay: DASS-21 stress score in patients treated with CBD only (clinical data registry); settings: for DASS-21 Stress Score, Post 1-month follow-up Mean (Std. dev): mean days of treatment 47 (+/−23)
Text: (§2) Detailed demographic information and validated standardised questionnaires were collected as part of routine care. Written informed consent to treatment was obtained from all patients, as well as additional consent to participate in Emyria's clinical data registry, data from participating patients were anonymised, aggregated, and analysed to establish clinical efficacy.
(§3) Clinically validated tools were used to monitor patients for management of symptoms, quality of life, physical/emotional functioning, and concomitant medication usage. Patients were asked about their cannabis history and initially pre-screened for any illicit cannabis use before commencing on medicinal cannabis treatment using the Cannabis Use Disorder Identification Test (CUDIT), a urine screen was performed to confirm negative result for cannabis in their urine before they commence treatment. After they commenced on medicinal cannabis treatment they were initially treated with low doses and monitored for safety and efficacy of treatment before dose escalation is considered.
(§4) Patients are excluded from treatment with medicinal cannabis if they: were pregnant or breast-feeding; have untreated heart disease, heart failure or arrhythmia; a history of severe psychiatric disorders; active suicidal ideation; a history of dependence on cannabis; a history of dependence or abuse of psychoactive substances; detectable urinary THC before commencement of medicinal cannabis.
(§5) A potentially eligible individual who met any of the following criteria will be excluded from participation if the following criteria is met: • 1. Clinically recorded cannabis drug addiction, or cannabis use disorder including individuals with scores 8 or more on the Cannabis Use Disorder Identification Test (CUDIT). • 2. Untreated cardiovascular disease, arrhythmias (other than well controlled atrial fibrillation), or severe heart failure. • 3. History of suicide attempts or suicidal ideation. • 4. History of psychotic episode, schizophrenia or other psychotic disorders.
as §1
(§6) The doctors treating patients prescribed orally-based medicinal cannabis standardised products as per approval under the Therapeutic Goods Administration (TGA) through the Special Access Scheme (SAS) Category B and Authorised Prescriber (AP) scheme. The prescribing doctor will decide which product type including THC/CBD ratio and CBD only, based on TGA guidance documents (ie for pain THC/CBD type is generally prescribed) [see https://www.tga.gov.au/medicinal-cannabis-guidance-documents], but also will factor in patient's circumstances such as driving (then CBD only prescribed).
(§7) Treatment dosing by the prescribing doctor was in accordance with Emyria (Emerald Clinics) experience, well-tolerated with minimal side effects. Doctors reviewed patients after the 14 day (2 week), see the Schedule of Assessments (FIG. 2). Following the 2-week dosing review where a doctor may increase/decrease the dosage or change product type, patients were then seen regularly (generally monthly) as per the Schedule of Assessments (FIG. 2). Patients taking CBD only products were prescribed either oil or capsules. […]

[3] = system: symptoms of anxiety; assay: DASS-21 anxiety score in patients treated with CBD only (clinical data registry); settings: for DASS-21 Anxiety Score, Post 1-month follow-up Mean (Std. dev): mean days of treatment 47 (+/−23)
Text: as §2
Clinically validated tools were used to monitor patients for management of symptoms, quality of life, physical/emotional functioning, and concomitant medication usage. […] After they commenced on medicinal cannabis treatment they were initially treated with low doses and monitored for safety and efficacy of treatment before dose escalation is considered.
as §5
Patients were assessed monthly by the clinical team (doctor and nurse) and a visit schedule protocol was followed for each patient. A full medical history was conducted at the initial visit, including a detailed history of the clinical indication (including duration symptoms), comorbidities mental and cardiac health conditions, previous procedures, medications and therapies tried. Patients were reviewed as per the Schedule of Assessments (FIG. 2).
as §6
Doctors reviewed patients after the 14 day (2 week), see the Schedule of Assessments (FIG. 2). Following the 2-week dosing review where a doctor may increase/decrease the dosage or change product type, patients were then seen regularly (generally monthly) as per the Schedule of Assessments (FIG. 2). Patients taking CBD only products were prescribed either oil or capsules.

[4] = system: symptoms of depression; assay: DASS-21 depression score in patients treated with CBD only (clinical data registry); settings: for DASS-21 Depression Score, Post 1-month follow-up Mean (Std. dev): mean days of treatment 47 (+/−23)
Text: as §2, §3, §4, §5, §1, §6, §7

[5] = among the 36 patients that experienced AEs
[6] = average treatment window of slightly under 13 days
[7] = dosage amounts between 50-200 mg per day
[8] = mean treatment horizon of 22 days
[9] = mean treatment period of 7 days
[10] = patients with subthreshold and clinically significant scores at baseline

SMILES: C=C(C)C1CCC(C)=CC1c1c(O)cc(CCCCC)cc1O (stereo not drawn) [cannabidiol, 2-[3-methyl-6-(1-methylethenyl)-2-cyclohexen-1-yl]-5-pentyl-1,3-benzenediol]
- Patients with any AEs ([1]; 36 out of 190 patients on CBD only): 19%
- Share of AEs that were mild (no change in dose or product) [1, 5]: 61%
- Share of AEs that were moderate (requiring change in dose or product) [1, 5]: 36%
- Patients with severe AEs (allergic reactions and constipation) resulting in cessation of the product ([1]; one of the 36 patients with AEs): 2.8%
- DASS-21 Stress Score, Post 1-month follow-up Mean (Std. dev) ([2]; All (n = 146), initial mean 21.6 (9.5), p 0.000): 16.2 (9.5)
- DASS-21 Stress Score, Post 1-month follow-up Mean (Std. dev) ([2]; Mod to extreme (n = 79), initial mean 28.8 (6.2), p 0.000): 20.5 (9.4)
- Decrease in stress score [2, 6]: −9.0
- DASS-21 Stress Score, Post 1-month follow-up Mean (Std. dev) ([2]; baseline category Extremely Severe 34+ (n = 18), initial mean 38.2 (2.4), p 0.000): 21.7 (12.2)
- DASS-21 Stress Score, Post 1-month follow-up Mean (Std. dev) ([2]; baseline category Mild 15-18 (n = 27), initial mean 16.9 (1.0), p 0.038): 14.1 (6.5)
- DASS-21 Stress Score, Post 1-month follow-up Mean (Std. dev) ([2]; baseline category Moderate 19-25 (n = 27), initial mean 22.4 (1.8), p 0.002): 17.2 (7.7)
- DASS-21 Stress Score, Post 1-month follow-up Mean (Std. dev) ([2]; baseline category Normal 0-14 (n = 40), initial mean 10.6 (3.1), p 0.100): 9.0 (6.0)
- DASS-21 Stress Score, Post 1-month follow-up Mean (Std. dev) ([2]; baseline category Severe 26-33 (n = 34), initial mean 28.9 (1.9), p 0.000): 22.6 (8.4)
- Change in stress score from initial visit to first follow-up versus dosage (FIG. 7) [2, 7]: correlated with a higher value of change indicating less symptoms of anxiety, stress and/or depression
- Fall in stress score [2, 8]: −5.8
- Decline in stress score [2, 9]: −16.0
- Mean DASS-21 stress score over the first six months (FIG. 16) [2, 10]: significant reduction over the 6-month period
- DASS-21 Anxiety Score, Post 1-month follow-up Mean (Std. dev) ([3]; All (n = 146), initial mean 13.7 (8.7), p 0.000): 9.1 (6.8)
- DASS-21 Anxiety Score, Post 1-month follow-up Mean (Std. dev) ([3]; Mod to extreme (n = 100), initial mean 17.7 (7.5), p 0.000): 11.0 (7.1)
- Decrease in anxiety score [3, 6]: −6.0
- DASS-21 Anxiety Score, Post 1-month follow-up Mean (Std. dev) ([3]; baseline category Mild 8-9 (n = 13), initial mean 8.0 (0.0), p 0.291): 7.1 (3.0)
- DASS-21 Anxiety Score, Post 1-month follow-up Mean (Std. dev) ([3]; baseline category Moderate 10-14 (n = 50), initial mean 12.1 (1.7), p 0.000): 8.8 (5.1)
- DASS-21 Anxiety Score, Post 1-month follow-up Mean (Std. dev) ([3]; baseline category Normal 0-7 (n = 33), initial mean 3.9 (1.7), p 0.667): 4.2 (3.7)
- DASS-21 Anxiety Score, Post 1-month follow-up Mean (Std. dev) ([3]; baseline category Severe 15-19 (n = 16), initial mean 17.0 (1.0), p 0.009): 10.9 (7.9)
- Change in anxiety score from initial visit to first follow-up versus dosage (FIG. 6) [3, 7]: correlated with a higher value of change indicating less symptoms of anxiety, stress and/or depression
- Fall in anxiety score [3, 8]: −5.7
- Decline in anxiety score [3, 9]: −10.5
- Mean DASS-21 anxiety score over the first six months (FIG. 14) [3, 10]: significant reduction over the 6-month period
- DASS-21 Depression Score, Post 1-month follow-up Mean (Std. dev) ([4]; All (n = 146), initial mean 17.4 (9.6), p 0.000): 12.8 (10.0)
- DASS-21 Depression Score, Post 1-month follow-up Mean (Std. dev) ([4]; Mod to extreme (n = 92), initial mean 22.7 (8.0), p 0.000): 16.4 (10.6)
- Decrease in depression score [4, 6]: −11.2
- DASS-21 Depression Score, Post 1-month follow-up Mean (Std. dev) ([4]; baseline category Extremely Severe 28+ (n = 28), initial mean 32.9 (5.2), p 0.000): 21.4 (11.6)
- DASS-21 Depression Score, Post 1-month follow-up Mean (Std. dev) ([4]; baseline category Mild 10-13 (n = 29), initial mean 10.9 (1.0), p 0.000): 7.1 (4.6)
- DASS-21 Depression Score, Post 1-month follow-up Mean (Std. dev) ([4]; baseline category Moderate 14-20 (n = 49), initial mean 16.4 (2.2), p 0.002): 12.8 (8.1)
- DASS-21 Depression Score, Post 1-month follow-up Mean (Std. dev) ([4]; baseline category Normal 0-9 (n = 25), initial mean 5.5 (2.3), p 0.543): 6.2 (4.8)
- DASS-21 Depression Score, Post 1-month follow-up Mean (Std. dev) ([4]; baseline category Severe 21-27 (n = 15), initial mean 24.1 (1.6), p 0.089): 18.8 (11.7)
- Change in depression score from initial visit to first follow-up versus dosage (FIG. 8) [4, 7]: correlated with a higher value of change indicating less symptoms of anxiety, stress and/or depression
- Fall in depression score [4, 8]: −3.9
- Decline in depression score [4, 9]: −17.5
- Mean DASS-21 depression score over the first six months (FIG. 15) [4, 10]: significant reduction over the 6-month period
